“And” between values parts separate entries of the source, which are not always exact repeats. Equal values may be shown once.
Legend:
normal human plasma = test: Ecarin clotting time in human plasma (Example 10, Method D); format: biochemical; details: 1-10 μM
Description: (§1) Ecarin was obtained from HTI (USA) whilst the normal human plasma was purchased from Precision Biologics via Alpha Laboratories (UK). Rat plasma was purchased from Harlan laboratories, UK.
(§2) TRI 50c was diluted in an assay buffer (100 mM sodium orthophoshate, 200 mM NaCl, 0.5% PEG 6000 and 0.02% sodium azide, pH 7.5) and incubated with normal human pooled or rat plasma (80% final) for 5 minutes at 37° C. Ecarin (100 μg/ml final) was added to the incubating solution. The clotting times were determined using a plate reader (Versamax, Molecular Devices Corporation) at 405 nm for up to 10 minutes at 37° C.

rat plasma = test: Ecarin clotting time in rat plasma (Example 10, Method D); format: biochemical; details: 10 μM; fresh rat plasma
Description: as §1, §2

thrombin [1] = molecular target: T1, thrombin (Homo sapiens, UniProt P00734); test: Thrombin assay, reversal of TRI 50c inhibition (Example 10, Methods A-C); format: biochemical; details: final concentration; TRI 50c 1 μM; Method A
Description: 50 μl thrombin (33.3 ng/ml in assay buffer) and 20 μl vehicle or compound solution were added to 110 μl assay buffer (100 mM Na orthophosphate (80% Na2HPO4 and 20% NaH2PO4), 200 mM NaCl, 0.5% PEG 6000, 0.02% Na azide, pH 7.5) and incubated for 5 minutes at 37° C. […] Results are expressed as percentage change in thrombin activity. […] After the incubation period 100 μl of activated HDL (Method B) was added and further incubated for 30 minutes at 37° C.

human thrombin [2] = test: Total neutralising capacity towards peptide boronates (Method C); format: biochemical; details: for maximum number of boronate molecules destroyed by BLp: BLp in the absence of Cu2+
Description: Method C. 20 μl of TRI-50b dissolved in DMSO was added to 313 μl of bovine lipoprotein (diluted 1 in 10 in Buffer A, see method A above) to achieve a range of final concentrations of 164, 333, 490, 660, 820, 990, 1150, 1320 and 1480 μM, respectively. Samples were removed at timed intervals and diluted 1 in 20 with buffer A. The concentration of TRI-50b in 25 μl of this mixture was determined as described in Method A. Residual TRI-50b was determined from a standards curve. The change in concentration of TRI-50b was calculated by subtracting the residual concentration from the starting concentration.
BLp was incubated at 37° C. in the presence or absence of 1 mM cupric sulphate, Samples were taken at timed intervals and added to varying concentrations of TRI-50b up to 1.5 mM. The residual TRI-50 b was measured by Method C (Materials and Methods). —Cu^2+ […]-[…]; +Cu^2+ ▴-▴. In FIG. 10 are shown the results of an experiment in which the total mass of neutralising activity of bovine lipoprotein was determined. Increasing concentrations of TRI-50b up to 1.5 mM were added to a ten-fold dilution of the BLp fraction (OD280 nm=4.0). A rapid neutralisation of TRI-50b was observed reaching a maximum beyond which the neutralising capacity was totally exhausted. In the absence of Cu^2+, the maximum mass of TRI-50b that was neutralised was equivalent to 0.8 mM. The concentration of BLp in the mixture was 1.9 g/l or 0.0038 mM. Thus around 200 moles of TRI-50b were neutralised per mole of lipoprotein. In the presence of Cu^2+, the maximum mass of TRI-50b that was neutralised was higher and equivalent to 320 moles/mole.
A similar experiment was carried out with dilutions of plasma (FIG. 11). […] Plasma at varying dilutions was incubated at 37° C. in the presence of 1 mM cupric sulphate. Samples were taken at timed intervals and added to varying concentrations of TRI-50b up to 1.5 mM. The residual TRI-50 b was measured by Method C (Materials and Methods). 1 in 3, […]-[…]; 1 in 6, ▴-▴; 1 in 12, ▾-▾; 1 in 3 without Cu^2+, ▪-▪. […]
The low-density lipoprotein particle contains a single molecule of a 500 kDa protein and 1500 molecules of esterified cholesterol. […] Samples were taken at timed intervals and the residual TRI-50b concentration was determined by Method C (Materials and Methods).
In FIG. 13 are shown the observations made upon the neutralisation of a number of other peptide boronates by BLp added in the absence of Cu^2+, namely TRI-30, Z-D-Dpa-Pro-BoroMbg-Opin, TRI-26, Z-D-βNal-Pro-BoroIrg-Opin; TRI-142, Moc-D,L-Dpa-Pro-BoroMpg-Opinac. […] The residual concentration of boronate was determined by Method C (Materials and Methods).

[3] = PBS pH 7.2; cited from earlier work
[4] = stored at −80° C.; cited from earlier work
thrombin [5] = molecular target: T1, thrombin; test: Ki of hydrogen peroxide-treated TRI-50b against thrombin (Dixon plots); format: biochemical; details: after hydrogen peroxide (3.0%) 2 hours at RT
Description: The loss of activity of boropeptides when contacted with peroxide compounds was apparently due to the removal of the boronic acid moiety (as was observed upon treatment of TRI-50b with hydrogen peroxide). The boron provides at least four orders of binding energy to the peptide sequence because of the formation of a transition state-like adduct with the active site serine. […] 1 volume TRI-50b (15 mg/ml in DMSO) was added slowly to 10 volumes of hydrogen peroxide (3.0%) for 2 hours at RT. The Ki for inhibition of thrombin activity was carried out using Dixon plots. The initial rate of cleavage of S2302 (a chromogenic substrate for thrombin) by thrombin (28 nM) was determined at the different concentrations of substrate in the presence of varying concentrations of the oxidised inhibitor. This loss of binding energy was observed as a 20,000 fold increase in the Ki against thrombin (FIG. 15).

thrombin clotting time = test: Example 11: TRI 50b and lipoprotein antidote in rat, thrombin clotting time; format: in vivo
Description: The efficacy of a new specific antidote towards the dynamic activity of TRI 50b was evaluated in a rat study (n=15) (Male and Female rats circa 250-300 g).
Male and female rats were anaesthetised and arterial blood sampling lines placed.
The antidote was prepared from a bovine lipoprotein following oxidation, ultrafiltration and Concentration.
The study was divided into three groups as follows: • TRI 50b alone at a dose of 2.0 mg/kg intravenously (0.8 ml/kg: Prepared in 25% ethanol/saline) • Antidote alone (5.0 ml/kg) • TRI 50b followed by administration of the antidote.
Blood samples were taken from an arterial line into 3.8% tri-sodium citrate and plasma prepared by centrifugation.
Dynamic activity of TRI 50b was assessed in plasma samples by measurement of the thrombin clotting time.
200 ml of Lipocell (Lipoprotein fraction, Intergen catalogue number 4505-01, Lot number WT18002) was incubated at 37° C. for 37 hours. The Lipocell was then concentrated by centrifugation. The sample contained in an Amicon Centriprep YM-3 centrifugal concentrator was spun at 3800 rpm in an IEC Centra 3C centrifuge for 30 minutes at RT. The concentrated samples were pooled and centrifuged twice more to a final volume of around 50 mls. The sample was stored at 4° C.

human thrombin [6] = test: Quenching of TRI-50b neutralising activity by N-acetyl cysteine (Method B); format: biochemical
Description: Method B Method as A except that the measurement was made at a single time point. The incubation period was 20 minutes with plasma samples and 1 minute with the purified lipoproteins. Results are given as the overall percentage activity relative to a control without inhibitor. If lipid peroxides are involved in the inactivation then, the addition of n-acetyl-cysteine (NAC), a powerful anti-oxidant should reduce the neutralising activity. (NAC has been used historically to mop up reactive oxygen species). […] Plasma (1 in 10 dilution in buffer A) was incubated with 1.0 mM cupric sulphate for 4 hours. Increasing concentrations of n-acetyl cysteine were then added and also to BLp (1 in 10 dilution in buffer A). The neutralisation of TRI-50b was measured by Method B (Materials and Methods). Plasma, ▪-▪, BLp ▴-▴. A reduction in neutralising activity, to approximately base-line levels was observed when increasing concentrations of NAC were added to plasma or the bovine lipoprotein fraction (FIG. 14).

Question: Which “prolongation of ECT” value (normal human plasma) does the source give for COCCC[C@H](NC(=O)[C@@H]1CCCN1C(=O)[C@@H](Cc1ccccc1)NC(=O)OCc1ccccc1)B(O)O [TRI 50c, Cbz-(R)-Phe-(S)-Pro-(R)-Mpg-B(OH)2] here?
Answer: concentration dependent prolongation

Question: And the ECT (rat plasma)?
Answer: approximately 215 seconds

Question: For O=S(=O)([O-])[O-].[Cu+2] [CuSO4, copper sulphate], which “concentration that began to reduce the inhibitory activity of TRI 50c” value (thrombin [1]) is on record?
Answer: greater than 50 μM

Question: Which results are given for cholesteryl linoleate hydroperoxide?
Answer: equivalence of TRI-50b neutralisation (human thrombin [2]; 44 μM hydroperoxide mixed with TRI-50b): approximately 1 mole/mole; solubility in aqueous buffers [3]: < 20 µg/mL; storage stability [4]: stable for at least six months

Question: With Z-D-βNal-Pro-BoroIrg-Opin [TRI-26] as the compound, how does the “maximum number of boronate molecules destroyed by BLp” value (“maximum number” for short) (human thrombin [2]) read?
Answer: around 65 moles/mole

Question: Which “maximum number” value (human thrombin [2]) does the source give for “Moc-D,L-Dpa-Pro-BoroMpg-Opinac [TRI-142]” here?
Answer: around 65 moles/mole

Question: What does the source list for COCCC[C@H](NC(=O)[C@@H]1CCCN1C(=O)[C@@H](Cc1ccccc1)NC(=O)OCc1ccccc1)B1OC(C)(C)C(C)(C)O1 [TRI 50b, Cbz-(R)-Phe-Pro-BoroMpg-OPinacol]?
Answer: increase in the Ki against thrombin (thrombin [5]): 20,000 fold; elevation of thrombin clotting time over base line (thrombin clotting time; 2.0 mg/kg intravenously, two minutes post dose): 5.6 times base line; thrombin clotting time (TT) (thrombin clotting time; 2.0 mg/kg iv, 30 minutes post dose): 36 s; time for thrombin clotting time to return to base line (thrombin clotting time; 2.0 mg/kg iv, post dose): ≤ 60 min; thrombin clotting time (thrombin clotting time; 2.0 mg/kg iv, two minutes post dose): 128 s and 138 s

Question: For Z-D-Dpa-Pro-BoroMbg-Opin [TRI-30], which “maximum number” value (human thrombin [2]) is on record?
Answer: around 80 moles/mole

Question: For CC(=O)NC(CS)C(=O)O (stereo not shown) [NAC, n-acetyl-cysteine], which IC50 (human thrombin [6]; BLp (1 in 10 dilution)) is on record?
Answer: ~2 mM

Question: What about the IC50 (human thrombin [6]; oxidised plasma (1 in 10, 1.0 mM cupric sulphate 4 hours)) of the same compound?
Answer: ~0.1 mM

Reference: US20060172920A1, “Oxidised lipids as reversal agents for boronic acid drugs” (priority 2004, published 2006)
